According to patent US12692249B2, “WDR5 inhibitors and modulators” (Vanderbilt University, priority 2019, dated 2026):

How the values were obtained:
[1] = tested on: MV4:11 human cancer cell lines; assay: Cellular viability / anti-proliferative assay, CellTiter-Glo, 5 day protocol; assay type: cell-based; conditions: Homo sapiens, MV4-11, 120 h, MV4:11 cells; 5 day incubation; CellTiter-Glo; mean of at least two replicates; read-out: GI50 on cellular proliferation of MV4:11 human cancer cell lines
In short: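 MV-4-11 cells in IMDM with 10% FBS, 200 cells/well, exposed 5 days to 22 two-fold dilutions from 30 μM, final DMSO 0.3%. Viability read by CellTiter-Glo luminescence; GI50 from sigmoidal dose-response fit, mean of at least two replicates.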

WDR5 = WDR5 (Homo sapiens, UniProt P61964); assay: TR-FRET competition binding assay, displacement of 10mer-Thr-FAM MLL peptide probe from His-tagged WDR5; conditions: WDR5-His tag (residues 24-334) 2 nM; 10mer-Thr-FAM 150 nM; 60 min, room temperature; read-out: Ki for Inhibition of WDR5 by TR-FRET assay

Row | GI50 [1] | Ki (WDR5) | SMILES
1 | < 20 nM | < 0.02 nM | COc1cnc2c(c1)[C@@H](N1CCc3c(cc(Cn4ccnc4C)cc3-c3cn(C)nc3C(F)(F)F)C1=O)CCC2 [Example 68, (S)-2-(3-Methoxy-5,6,7,8-tetrahydroquinolin-5-yl)-7-((2-methyl-1H-imidazol-1-yl)methyl)-5-(1-methyl-3-(trifluoromethyl)-1H-pyrazol-4-yl)-3,4-dihydroisoquinolin-1(2H)-one]
2 | 28 nM | 0.039 nM | COc1cc(CO)c2nccc(N3CCc4c(cc(Cn5ccnc5)cc4-c4cn(C)nc4C(F)(F)F)C3=O)c2c1 [Example 94, 7-((1H-Imidazol-1-yl)methyl)-2-(8-(hydroxymethyl)-6-methoxyquinolin-4-yl)-5-(1-methyl-3-(trifluoromethyl)-1H-pyrazol-4-yl)-3,4-dihydroisoquinolin-1(2H)-one]
3 | < 20 nM | 0.04 nM | COc1cc(CN2CCN(C)CC2)c2nccc(N3CCc4c(cc(Cn5ccnc5)cc4-c4cn(C)nc4C(F)(F)F)C3=O)c2c1 [Example 135, 7-((1H-Imidazol-1-yl)methyl)-2-(6-methoxy-8-((4-methylpiperazin-1-yl)methyl)quinolin-4-yl)-5-(1-methyl-3-(trifluoromethyl)-1H-pyrazol-4-yl)-3,4-dihydroisoquinolin-1(2H)-one]
4 | > 30000 nM | 4.6 nM | Cc1nc2cccc(N3CCc4c(cc(Cn5ccnc5)cc4-c4cn(C)nc4C(F)(F)F)C3=O)c2o1 [Example 27, 7-((1H-Imidazol-1-yl)methyl)-5-(1-methyl-3-(trifluoromethyl)-1H-pyrazol-4-yl)-2-(2-methylbenzo[d]oxazol-7-yl)-3,4-dihydroisoquinolin-1(2H)-one]
5 | < 20 nM | 0.029 nM | Cc1ccc2cncc(N3CCc4c(cc(Cn5ccnc5C)cc4-c4cn(C)nc4C(F)(F)F)C3=O)c2c1 [Example 10, 6′-Methyl-7-((2-methyl-1H-imidazol-1-yl)methyl)-5-(1-methyl-3-(trifluoromethyl)-1H-pyrazol-4-yl)-3,4-dihydro-1H-[2,4′-biisoquinolin]-1-one]
6 | < 20 nM | < 0.02 nM | CCc1cc(OCCOC)c2nccc(N3CCc4c(cc(Cn5ccnc5)cc4-c4cn(C)nc4C(F)(F)F)C3=O)c2c1 [Example 140, 7-((1H-Imidazol-1-yl)methyl)-2-(6-ethyl-8-(2-methoxyethoxy)quinolin-4-yl)-5-(1-methyl-3-(trifluoromethyl)-1H-pyrazol-4-yl)-3,4-dihydroisoquinolin-1(2H)-one]
7 | 55 nM | < 0.02 nM | CCc1cc(N2CCn3cnnc3C2)c2nccc(N3CCc4c(cc(Cn5ccnc5)cc4-c4cn(C)nc4C(F)(F)F)C3=O)c2c1 [Example 208, 7-((1H-Imidazol-1-yl)methyl)-2-(8-(5,6-dihydro-[1,2,4]triazolo[4,3-a]pyrazin-7(8H)-yl)-6-ethylquinolin-4-yl)-5-(1-methyl-3-(trifluoromethyl)-1H-pyrazol-4-yl)-3,4-dihydroisoquinolin-1(2H)-one]
8 | 83 nM | 0.034 nM | COc1ccc2ccnc(N3CCc4c(cc(Cn5ccnc5C)cc4-c4cn(C)nc4C(F)(F)F)C3=O)c2c1 [Example 5, 7-Methoxy-7′-((2-methyl-1H-imidazol-1-yl)methyl)-5-(1-methyl-3-(trifluoromethyl)-1H-pyrazol-4-yl)-3′,4-dihydro-1′H-[1,2′-biisoquinolin]-1′-one]
9 | 27 nM | 0.052 nM | COc1cc(OC)c2cncc(N3CCc4c(cc(Cn5ccnc5)cc4-c4cn(C)nc4C(F)(F)F)C3=O)c2c1 [Example 122, 7-((1H-Imidazol-1-yl)methyl)-6′,8′-dimethoxy-5-(1-methyl-3-(trifluoromethyl)-1H-pyrazol-4-yl)-3,4-dihydro-1H-[2,4′-biisoquinolin]-1-one]
